# Measured values published in patent US8303907B2, “Biosensors, and method and kits for using same” (priority 2002, dated 2012).
# Read-outs that look alike come from different tables or passages of the source.
# Legend:
# [1] = tested on: stabilised thylakoid membranes; assay: Inhibition of photosynthetic efficiency of stabilised thylakoid membranes measured by fluorescence (F2-F1)/F2; type: biochemical, spinach
# Source text: In a specific embodiment, a fluorometer continuously illuminates weakly the photosynthetic biological material with a light emitting diode (LED) emitting light at a wavelength of 475 or at 660 nm. Better results were obtained with the 475 nm wavelength. In order to obtain a higher sensitivity for measuring the photosynthetic response to toxic molecules, the intensity of the low excitation light was adjusted so as to obtain a F1 fluorescence level slightly higher than F0.
# Fluorescence measured 2 sec after turning on one LED is F1. Three additional LEDs are then turned on so as to induce actinic illumination F2. Dispersion of LEDs is illustrated in FIG. 1. Light beams are oriented so as to form together a point of convergence precisely at the level where the photodiode is read. After a specific time, selected according to the nature of the thylakoid membranes used (eg. source of thylakoids, etc.) (Table 1), of the background noise and of the level of sensitivity sought, the F2 fluorescence is measured. To determine F1 and F2, the fluorometer measures wavelengths higher than 650 nm when the illumination is at 475 nm, and higher than 700 nm when illumination is at 660 nm.
# The photosynthetic efficiency is determined with the following formula (F2−F1)/F2. Preferably, the photosynthetic efficiency of the stabilised thylakoids is 0.8±0.1. Any molecule affecting the photosystems modifies either F1 or F2 which modification necessarily disrupts (increases or decreases) the photosynthetic efficiency. The inhibition curve of a particular molecule is determined by calculating the activity of the photosystems in the absence of the molecule and in the presence of the molecule and comparing both efficiency as follows as described in Conrad 1993:
# Without inhibitor (wi): efficiency(wi)=(F2(wi)−F1(wi))/F2(wi) With inhibitor: Relative photosynthetic efficiency(sample)=(F2(sample)−F1(sample))/F2(wi) Percentage efficiency: efficiency (%)=(efficiency(sample)×100)/efficiency(wi) Percentage inhibition: Inhibition (%)=100−efficiency (%)
# The individual test tubes (100 μL lyophilised thylakoid membranes) were resuspended in 2 mL of water or tested samples. The concentrated batch of test tubes was resuspended in water, in Buffer 1 (HEPES-NaOH 50 mM pH 7.5 buffer containing sucrose 330 mM, MgCl2 20 mM, NH4Cl 10 mM, PEG 4000 4% (p/v)); or in Buffer 2 (phosphate buffer 0.1 M pH 6.5 containing sucrose 330 mM, NH4Cl 10 mM, MgCl2 20 mM, EDTA 10 mM, PEG 4000 4% (p/v)). A combination of buffered solutions 1 and 2 may also be used. […] These different buffers rs produce different results in the detection sensitivity (see Table 3 above). The final volume obtained depends on the quantity of lyophilised membranes used (2.5 mL for 25 tests, 5 mL for 50 tests).
# Before use, the tubes containing stabilised thylakoid membranes were retrieved from storage. If they were stored in the freezer or the refrigerator, they were tempered 30 minutes at room temperature and in the dark. Two milliliters of fluid samples and the required volume of MgCl2 mother solution to get 0-10 mM MgCl2 (depending on tested samples) were added to 100 μL of the thylakoids membranes formulation at a concentration of 5 μg/mL. The tubes are then shook by inversion for 2 min. […]
# [2] = tested on: Chemically immobilised thylakoids; conditions: chemically immobilised thylakoids (electrochemistry), Laberge (1999); cited from earlier work
# [3] = tested on: Physically immobilised thylakoids; conditions: physically immobilised thylakoids (electrochemistry), Laberge (2000); cited from earlier work
# PSII [4] = target: T1, PSII (Thermosynechococcus vestitus, UniProt P0A444); conditions: PSII Clark electrode (amperometry), Koblizek (2002), cited from earlier work
# algaes native [5] = conditions: algaes native (fluorescence), Jay (1997); cited from earlier work
# algaes native [6] = conditions: algaes native (fluorescence), Conrad (1993); cited from earlier work
# PSII [7] = target: T1, PSII; conditions: cited from earlier work
# [8] = Buffer 1 + 5 mM MgCl2 (in cuvette)
# [9] = membranes resuspended in Buffer 1
# [10] = membranes resuspended in Buffer 2
# [11] = stabilised thylakoid membranes of the present invention (fluorescence)
molecule,measurement,setting,value
Ammoniacal nitrogen,Effect (inhibition or stimulation) on thylakoid membranes,[1],Stimulation
N#Cc1cc(Br)c(O)c(Br)c1 [Bromoxynil],IC50,[1]; [8],>0.1 µg/mL
same,Threshold,[1]; [8],>0.1 mg/L
same,IC50,[1]; [9],0.443 µg/mL
same,Threshold,[1]; [9],0.013 mg/L
same,IC50,[1]; [10],0.414 µg/mL
same,Threshold,[1]; [10],0.06 mg/L
CC(C)Nc1nc(N)nc(Cl)n1 [Desethyl atrazine],IC50,[1]; [8],1.1 µg/mL
same,Threshold,[1]; [8],0.2 mg/L
same,IC50,[1]; [9],1.08 µg/mL
same,Threshold,[1]; [9],0.013 mg/L
same,IC50,[1]; [10],2.31 µg/mL
same,Threshold,[1]; [10],0.2 mg/L
CN(C)C(=O)Nc1ccc(Cl)c(Cl)c1 [Diuron],IC50,[1]; [8],0.011 µg/mL
same,Threshold,[1]; [8],0.002 mg/L
same,IC50,[1]; [9],0.022 µg/mL
same,Threshold,[1]; [9],0.0006 mg/L
same,IC50,[1]; [10],0.02 µg/mL
same,Threshold,[1]; [10],<0.001 mg/L
same,IC50,[1]; [11],71 µg/mL
same,Threshold,[1]; [11],0.002 mg/L
same,IC50,[2],120 µg/mL
same,Threshold,[2],0.01 mg/L
same,IC50,[3],130 µg/mL
same,Threshold,PSII [4],0.0001 mg/L
same,IC50,PSII [4]; read-out: IC50 (converted),81.5 µM
same,IC50,algaes native [5],12 µg/mL
same,Threshold,algaes native [5],0.002 mg/L
same,IC50,algaes native [6],959 µg/mL
same,IC50,PSII [7],686 µM
CCC(=O)Nc1ccc(Cl)c(Cl)c1 [Propanil],IC50,[1]; [8],0.068 µg/mL
same,Threshold,[1]; [8],0.0006 mg/L
same,IC50,[1]; [9],0.179 µg/mL
same,Threshold,[1]; [9],0.002 mg/L
same,IC50,[1]; [10],0.221 µg/mL
same,Threshold,[1]; [10],0.013 mg/L
CCNc1nc(Cl)nc(NC(C)C)n1 [Atrazine],Inhibition (%),"[1]; Biological apple juice, atrazine 0.01 μg/mL",23%
same,Inhibition (%),"[1]; Biological apple juice, atrazine 0.1 μg/mL",61%
same,Inhibition (%),"[1]; Biological apple juice, atrazine 4 μg/mL",71%
same,IC50,[1]; [8],0.04 µg/mL
same,Threshold,[1]; [8],0.001 mg/L
same,Inhibition (%),"[1]; Commercial apple juice (clear), pH 7, gravimetric filtration, atrazine 0.01 μg/mL",15%
same,Inhibition (%),"[1]; Commercial apple juice (clear), pH 7, gravimetric filtration, atrazine 0.1 μg/mL",60%
same,Inhibition (%),"[1]; Commercial apple juice (clear), pH 7, gravimetric filtration, atrazine 4 μg/mL",74%
same,Inhibition (%),"[1]; Commercial apple juice (with pulp), pH 7, gravimetric filtration, atrazine 0.01 μg/mL",23%
same,Inhibition (%),"[1]; Commercial apple juice (with pulp), pH 7, gravimetric filtration, atrazine 0.1 μg/mL",58%
same,Inhibition (%),"[1]; Commercial apple juice (with pulp), pH 7, gravimetric filtration, atrazine 4 μg/mL",65%
same,Inhibition (%),"[1]; Commercial apple juice, pH adjusted at 7, atrazine 0.01 μg/mL",11%
same,Inhibition (%),"[1]; Commercial apple juice, pH adjusted at 7, atrazine 0.1 μg/mL",61%
same,Inhibition (%),"[1]; Commercial apple juice, pH adjusted at 7, atrazine 4 μg/mL",84%
same,Inhibition (%),"[1]; Water, atrazine 0.01 μg/mL",16%
same,Inhibition (%),"[1]; Water, atrazine 0.1 μg/mL",60%
same,Inhibition (%),"[1]; Water, atrazine 4 μg/mL",80%
same,% effect,[1]; atrazine 0.001 mg/L,4.2%
same,% effect,[1]; atrazine 0.004 mg/L,14.9%
same,% effect,[1]; atrazine 0.04 mg/L,55.3%
same,% effect,[1]; atrazine 0.1 mg/L,69.4%
same,IC50,[1]; [9],0.13 µg/mL
same,Threshold,[1]; [9],0.002 mg/L
same,IC50,[1]; [10],0.33 µg/mL
same,Threshold,[1]; [10],0.002 mg/L
same,calculated inhibition,[1]; sample with initial concentration of 4 mg/L of atrazine,64.8%
same,detection threshold,[1]; some of the thylakoid membranes preparations,1 ppb
same,IC50,[1]; [11],40 µg/mL
same,Threshold,[1]; [11],0.001 mg/L
same,IC50,[2],330 µg/mL
same,Threshold,[2],0.01 to 0.05 mg/L
same,IC50,[3],280 µg/mL
same,IC50,PSII [4],301 µM
same,Threshold,PSII [4],0.0004 mg/L
same,IC50,algaes native [5],62 µg/mL
same,Threshold,algaes native [5],0.009 mg/L
same,IC50,algaes native [6],150 µg/mL
same,IC50,PSII [7],88.1 µM
O=C([O-])[O-].[Ca+2] [CaCO3],Effect (inhibition or stimulation) on thylakoid membranes,[1],Stimulation
CCNc1nc(Cl)nc(NC(C)(C)C#N)n1 [Cyanazine],IC50,[1]; [8],0.028 µg/mL
same,Threshold,[1]; [8],0.0006 mg/L
same,IC50,[1]; [9],0.009 µg/mL
same,Threshold,[1]; [9],0.002 mg/L
same,IC50,[1]; [10],0.135 µg/mL
same,Threshold,[1]; [10],0.013 mg/L
same,IC50,[1]; [11],40 µg/mL
same,IC50,[2],79 µg/mL
same,IC50,[3],310 µg/mL
Nitrates,Effect (inhibition or stimulation) on thylakoid membranes,[1],Weak inhibition
CC(C)N1C(=O)c2ccccc2NS1(=O)=O [Bentazon],IC50,[1]; [8],>4 µg/mL
same,Threshold,[1]; [8],>4 mg/L
same,IC50,[1]; [9],>4 µg/mL
same,Threshold,[1]; [9],2 mg/L
same,IC50,[1]; [10],>4 µg/mL
same,Threshold,[1]; [10],1.22 mg/L
[Cl-].[Na+] [NaCl],Effect (inhibition or stimulation) on thylakoid membranes,[1],Stimulation
CCNc1nc(Cl)nc(NCC)n1 [Simazine],IC50,[1]; [8],0.942 µg/mL
same,Threshold,[1]; [8],0.06 mg/L
same,IC50,[1]; [9],0.028 µg/mL
same,Threshold,[1]; [9],0.002 mg/L
Phosphates,Effect (inhibition or stimulation) on thylakoid membranes,[1],Stimulation
[Hg+2] [Hg],IC50,[1]; incubation time 15 min,2.5 µg/mL
same,Threshold limit value,[1]; incubation time 15 min,0.7 mg/L
same,IC50,[1]; incubation time 30 min,2.0 µg/mL
same,Threshold limit value,[1]; incubation time 30 min,0.35 mg/L
same,IC50,[1]; incubation time 60 min,2.0 µg/mL
same,Threshold limit value,[1]; incubation time 60 min,0.35 mg/L
CCCCCCCCCCCCCCCCCC(=O)O [Stearic acid],Effect (inhibition or stimulation) on thylakoid membranes,[1],Stimulation
CCNc1nc(N)nc(Cl)n1 [Deisopropyl atrazine],IC50,[1]; [8],>0.1 µg/mL
same,Threshold,[1]; [8],>0.1 mg/L
same,IC50,[1]; [9],>1 µg/mL
same,Threshold,[1]; [9],0.2 mg/L
same,IC50,[1]; [10],>4 µg/mL
same,Threshold,[1]; [10],1.26 mg/L
[Zn+2] [Zn],IC50,[1]; incubation time 15 min,>100 µg/mL
same,Threshold limit value,[1]; incubation time 15 min,16 mg/L
same,IC50,[1]; incubation time 30 min,70 µg/mL
same,Threshold limit value,[1]; incubation time 30 min,16 mg/L
same,IC50,[1]; incubation time 60 min,34 µg/mL
same,Threshold limit value,[1]; incubation time 60 min,7.1 mg/L
CCCCCCCC/C=C\CCCCCCCC(=O)O [Oleic acid],Effect (inhibition or stimulation) on thylakoid membranes,[1],Inhibition
[Ni+2] [Ni],IC50,[1]; incubation time 15 min,>100 µg/mL
same,Threshold limit value,[1]; incubation time 15 min,35 mg/L
same,IC50,[1]; incubation time 30 min,>100 µg/mL
same,Threshold limit value,[1]; incubation time 30 min,7.1 mg/L
same,IC50,[1]; incubation time 60 min,>100 µg/mL
same,Threshold limit value,[1]; incubation time 60 min,7.1 mg/L
OO [H2O2],Effect (inhibition or stimulation) on thylakoid membranes,[1],Inhibition
